Two molecules from patent US6610749B2, “Polyhydroxylated benzene-containing compounds” (ARCH Development Corporation, priority 2000, dated 2003) can be followed below.

Data set [1] has as its system sex hormones, leptin, IGF-I, insulin, LH and GH. The data set is described as follows: Change in levels of sex hormones, leptin, IGF-I, insulin, LH and GH (radioimmunoassay of serum). Format: in vivo, rat. The procedure: (§1) Animal. Adult Sprague-Dawley (SD; Harlan) rats (body weight for male: 170-190 g; for female: 125-145 g) and lean and obese Zucker (Charles River Laboratory) rats (body weight for lean male: 240-260 g; for obese male: 420-440 g) were given free access to a standard rat chow diet and water unless indicated. Animal experimental protocols were approved by the University of Chicago institutional animal care and use committee. Rats were maintained at an ambient temperature of 25° C. under a photoperiod of 12-hour light and 12-hour dark.
(§2) In vivo treatment. EGCG and other catechins (>98% pure) were isolated from green tea (Camellia sinensis) in our laboratory as described in Liao et al., Biochem. Biophys. Res. Commun. 214: 833-838 (1995). Catechins were dissolved in water for oral administration and in sterile phosphate buffered saline for ip injection. Rats in control groups received vehicle only. Testosterone propionate (TP) and 5α-dihydrotestosterone propionate (DHTP) were dissolved in sesame oil and 4 mg in 0.5 ml sesame oil (16 mg/kg body weight) was injected subcutaneously daily, when indicated.
(§3) Food-restricted, male SD rats were given 12 g rat chow daily, which was about 50% of the amount consumed daily by each control rat. The body weight and the amount of food and water consumed were monitored daily. Food consumption was monitored in rats caged in groups of 3 to 5 animals by weighing food pellets every 24 hr. On the final day, rats were anesthetized with methoxyflurane and blood was collected by heart puncture. Sera were collected after centrifugation (10,000 g for 20 min at 4° C.) for biochemical analysis.
(§4) Biochemical analysis. For biochemical analysis, commercially available radioimmunoassay kits for IGF-I and testosterone (Diagnostic Systems Laboratory, Inc), LH and GH (Amersham), leptin and insulin (Linco Research Inc), and corticosterone (ICN) and analytical kits for glycerol and triglyceride (Sigma) and fatty acids (Roche Molecular Biochemicals) were used. Proximate composition analysis of rats was performed by COVANCE Laboratory (Madison, Wis.). Complete blood count and serum chemistry (e.g., cholesterols, glucose, and enzymatic activities) were performed by the Animal Resource Center at the University of Chicago.
(§5) Statistical analysis. Data are expressed as the mean±sem. The unpaired Student's t-test was used to examine differences between control and the EGCG-injected groups. Analysis of variance and Student-Newman-Keuls multiple range test were used to examine differences among various groups. A probability level of 0.05 was used to indicate significance.
Change in levels of sex hormones, leptin, IGF-I, insulin, LH and GH. […] After 7 days of treatment with EGCG (about 85 mg/kg bw), circulating testosterone was reduced by about 70% in male SD rats. Similarly, the circulating level of 17β-estradiol was reduced by 34% in females after 7 days of EGCG treatment. […] However, the pulsatile nature of GH secretion prevented us from making definite conclusions about changes in circulating levels of GH in these rats. The effect of EGCG on sex hormones and various peptide hormones investigated was not mimicked by ECG which has one less hydroxyl group than EGCG.

The format of data set [2] is in vivo, rat. Here is the method: as §1, §2, §5
Weight change in accessory sexual organs and other organs. An effect of EGCG dosage on the weight of accessory sexual organs was also observed. The weight of androgen-sensitive organs, such as ventral and dorsolateral prostates, seminal vesicles, coagulating glands, and preputial glands were reduced by 50-70% after 7 days of treatment with EGCG (about 85 mg/kg bw). Weight changes in these sexual organs were modulated in a catechin-specific manner. Relative to control animals sacrificed at the start of the experiment, these accessory sexual organs (except preputial gland) in male SD rats were reduced by 30-50% in weight after 7 days of EGCG treatment. […]

Data set [3] can be described thus: Body weight of rats treated with EGCG. Format: in vivo, rat. The procedure: as §1, §2, §3, §5
Body weight of subjects treated with EGCG. […] In male SD rats, the effect of EGCG on body weight was dose-dependent. […] Male SD rats injected daily ip with 26 and 53 mg EGCG/kg bw gained body weight by 17-24% relative to their initial body weight, but lost 5-9% relative to the control after 7 days of treatment. Whereas, male SD rats daily injected ip with 85 mg EGCG/kg bw lost 15-21% of their body weight relative to their initial weight and 30-41% relative to the control after 7 days of treatment. Control rats continued growth and increased their body weight by 25-34% relative to their initial weight (see Table 1). Female SD rats injected daily ip with 12.5 mg EGCG (about 92 mg/kg bw) lost 10% of their body weight relative to their initial weight and 29% relative to the control after 7 days of treatment. Therefore, a dose of EGCG of 70-92 mg/kg body weight was used in most experiments.

The nature of data set [4]: Change in composition of blood (serum chemistry, complete blood count). The settings on record: rat, in vivo. The procedure: as §2, §3
Biochemical analysis. […]
Change in composition of blood. Male SD rats were treated with EGCG and ECG for 7 days and then their serum and whole blood was analyzed for various components. […]

Data set [5] in a line: Effect of EGCG on food intake. Type of data set: in vivo, rat. The procedure: as §1
In vivo treatment. EGCG and other catechins (>98% pure) were isolated from green tea (Camellia sinensis) in our laboratory as described in Liao et al., Biochem. Biophys. Res. Commun. 214: 833-838 (1995). Catechins were dissolved in water for oral administration and in sterile phosphate buffered saline for ip injection. Rats in control groups received vehicle only. […]
Food-restricted, male SD rats were given 12 g rat chow daily, which was about 50% of the amount consumed daily by each control rat. The body weight and the amount of food and water consumed were monitored daily. Food consumption was monitored in rats caged in groups of 3 to 5 animals by weighing food pellets every 24 hr. […]

Data set [6] in a line: Exogenous androgen (TP or DHTP) co-administered with EGCG. Format: in vivo, rat. Here is the method: as §2
Effects of exogenous androgen reverses the effect of EGCG on accessory sexual organs. To determine if the reduction in weight of accessory sexual organs was due to EGCG-induced reduction in androgen levels, we injected male SD rats with androgen and/or EGCG.

Data set [7] is described as follows: Change in serum nutrients and proximate body composition. Format: in vivo, rat. The procedure:
as §1, §2, §3, §4, §5
Change in serum nutrients and proximate body composition.

Setting [8] is: male and female SD rats, 7 days.
Where [9] appears, read: female SD rats, 12.5 mg EGCG (about 92 mg/kg bw) ip daily, 7 days.
[10] abbreviates: male SD rats, 85 mg EGCG/kg bw ip daily, 7 days.
[11] abbreviates: male SD rats, 26 and 53 mg EGCG/kg bw ip daily, 7 days.
The mark [12] stands for this setting: male SD and lean Zucker rats, within 7 to 8 days.

In the case of “(−)epicatechin-3-gallate [ECG, reference compound]”, the “effect on sex hormones and various peptide hormones, compared with the effect of EGCG” value in data set [1] (rats) is given as “not mimicked”.
Consider `O=C(OC1Cc2c(O)cc(O)cc2OC1c1cc(O)c(O)c(O)c1)c1cc(O)c(O)c(O)c1` (single isomer, unassigned; (-)) [EGCG, (−)epigallocatechin-3-gallate], for which, in data set [1] (female SD rats, 7 days), the “reduction of circulating level of 17β-estradiol” value was 34% and the “serum level of GH” value is given as “reduced in females”. Further, the “dose dependence of effects on serum testosterone, leptin, IGF-I and insulin” value in data set [1] (male SD rats) was “Dose-dependent effects”. The “serum level of GH” value in data set [1] (male SD rats, 7 days) is reported as “increased in males”. The “reduction of circulating testosterone” value in data set [1] (male SD rats, about 85 mg/kg bw, 7 days) is “about 70%”. Further, in data set [1] (setting [8]), the “blood level of IGF-I” value is recorded as “significant reduction”, the “blood level of insulin” value is recorded as “significant reduction”, the “blood level of leptin” value was “significant reduction” and the “reduction of serum level of LH” value is listed as 40-50%. Also, in data set [2] (about 85 mg/kg bw, 7 days, male rats), the “reduction in weight of androgen-sensitive organs (ventral and dorsolateral prostates, seminal vesicles, coagulating glands, preputial glands)” value was 50-70%. The “reduction in weight of estrogen-sensitive organs (uterus and ovary)” value in data set [2] (female SD rats, 7 days of treatment) is listed as “about 50%”. In addition, in data set [2] (male SD rats, 7 days of treatment), the “reduction in weight of accessory sexual organs (except preputial gland) relative to control animals sacrificed at the start of the experiment” value is 30-50%. Further, the “effectiveness in reducing body weight compared with 15 mg (about 85 mg/kg)” value in data set [3] (5 or 10 mg EGCG (26 and 53 mg/kg body weight) injected daily, male SD rats) is reported as “not effective or less effective”. Moreover, the body weight loss entry in data set [3] (IP injection, SD male and female rats, within 2 to 7 days of treatment) is given as “caused acute body weight loss”. Besides, in data set [3] (setting [9]), the “body weight lost relative to initial weight” value was 10% and the “body weight lost relative to the control” value turned out to be 29%. In data set [3] (setting [10]), the “body weight lost relative to initial weight” value was 15-21% and the “body weight lost relative to the control” value is 30-41%. For the same molecule, in data set [3] (setting [11]), the “body weight gain relative to initial body weight” value was 17-24% and the “body weight lost relative to the control” value is given as 5-9%. The “effect on body weight, dose dependence” value in data set [3] (male SD rats, ip daily) was “dose-dependent”. Also, the “serum total protein, albumin, blood urea nitrogen, creatine, PO4 3−, Na+, K+, Ca2+, Cl−, lactate dehydrogenase, alanine aminotransferase, aspartate aminotransferase, γ-glutamyltranspeptidase” value in data set [4] is “Neither EGCG nor structurally-related ECG caused significant changes”. Further, the “less food consumed than control rats” value in data set [5] (SD male and female rats, ip) was 50-60%. In addition, the “effects of EGCG when administered orally compared with intraperitoneally” value in data set [5] (oral administration) was “diminished or absent”. Further, in data set [6] (male SD rats, androgen co-administered), the “EGCG-induced body weight loss, food intake restriction, decreases in circulating leptin, IGF-I, insulin and LH, increase in GH under androgen administration” value is on record as “androgen administration was not able to prevent”. Also, in data set [6] (male rats injected daily with TP or DHTP (16 mg/kg sc)), the prostate weight loss entry is “did not cause prostate weight loss”. In addition, the “percent water and protein content (proximate composition)” value in data set [7] (SD rats treated daily for 7 days) is recorded as “no change”. For the same molecule, in data set [7] (SD rats treated daily for 7 days, 2.5% in control), the “carbohydrate content (proximate composition)” value is given as 1.3%. Besides, the “fat content (proximate composition)” value in data set [7] (SD rats treated daily for 7 days, 4.1% in control) turned out to be 1.4%. Further, in data set [7] (setting [12]), the “decrease of abdominal fat” value is recorded as 20-35%, the “decrease of epididymal fat” value is on record as “not epididymal fat” and the “decrease of subcutaneous fat” value is recorded as 40-70%. Moreover, in data set [7] (male SD rats), the “change in serum cholesterol” value is −20%, the “change in serum glucose” value is listed as −32%, the “change in serum lipids” value is listed as −15% and the “change in serum triglycerides” value is −46%. The “serum level of protein, fatty acids and glycerol” value in data set [7] (male SD rats) was “not altered”. The “loss of abdominal fat” value in data set [7] (obese male Zucker rats, within 4 days) is listed as 20%.
